Measured values: the Kinase Knowledgebase extract (Sharma et al. 2016)

These compounds were tested against PIK3CD (Human) (UniProt O00329) (assay: Assessment of PIK3CD Kinase Activity).
PIK3CD (Human), sequence (O00329 whole entry, looked up): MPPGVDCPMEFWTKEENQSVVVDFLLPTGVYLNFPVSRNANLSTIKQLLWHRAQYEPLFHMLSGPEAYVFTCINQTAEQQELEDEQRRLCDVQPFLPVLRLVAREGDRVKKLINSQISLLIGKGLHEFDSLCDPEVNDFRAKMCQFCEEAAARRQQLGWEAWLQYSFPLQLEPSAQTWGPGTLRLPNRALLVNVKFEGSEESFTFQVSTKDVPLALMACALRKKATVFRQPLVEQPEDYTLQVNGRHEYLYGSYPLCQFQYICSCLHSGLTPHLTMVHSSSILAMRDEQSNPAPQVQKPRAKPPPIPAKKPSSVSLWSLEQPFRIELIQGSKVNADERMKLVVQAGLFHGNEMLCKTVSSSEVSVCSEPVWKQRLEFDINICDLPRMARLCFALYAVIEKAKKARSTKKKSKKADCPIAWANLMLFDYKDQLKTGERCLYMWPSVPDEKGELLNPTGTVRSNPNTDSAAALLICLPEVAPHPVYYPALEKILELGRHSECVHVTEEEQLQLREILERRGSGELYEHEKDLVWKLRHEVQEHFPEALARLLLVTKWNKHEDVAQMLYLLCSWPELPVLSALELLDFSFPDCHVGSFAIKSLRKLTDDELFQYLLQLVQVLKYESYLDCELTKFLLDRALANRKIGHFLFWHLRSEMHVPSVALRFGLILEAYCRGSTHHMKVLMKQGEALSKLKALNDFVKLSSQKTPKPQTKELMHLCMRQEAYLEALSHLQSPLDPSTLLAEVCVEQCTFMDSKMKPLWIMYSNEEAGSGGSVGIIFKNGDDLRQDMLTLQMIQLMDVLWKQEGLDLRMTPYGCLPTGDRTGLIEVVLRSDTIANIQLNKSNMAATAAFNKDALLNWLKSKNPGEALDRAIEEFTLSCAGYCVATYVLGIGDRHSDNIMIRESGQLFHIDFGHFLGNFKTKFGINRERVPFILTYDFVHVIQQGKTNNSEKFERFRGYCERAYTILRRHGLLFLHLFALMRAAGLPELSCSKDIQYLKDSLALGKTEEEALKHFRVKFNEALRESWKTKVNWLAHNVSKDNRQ

IC50, ≤ 100 nM:
c1ccc(CC2CCN(Cc3cc4nc(-c5cccc6[nH]ncc56)nc(N5CCOCC5)c4s3)CC2)nc1
CS(=O)(=O)N1CCN(Cc2cc3nc(-c4cccc5[nH]ccc45)nc(N4CCOCC4)c3s2)CC1
FC(F)(F)CN1CCN(Cc2cc3nc(-c4cccc5[nH]ncc45)nc(N4CCOCC4)c3s2)CC1
CC(C)(C(=O)N1CCCC1)N1CCN(Cc2cc3nc(-c4cccc5[nH]ncc45)nc(N4CCOCC4)c3s2)CC1
CNC(=O)C1CCN(Cc2cc3nc(-c4cccc5[nH]ncc45)nc(N4CCOCC4)c3s2)CC1
CN(C)C(=O)CN1CCN(Cc2cc3nc(-c4cccc5[nH]ccc45)nc(N4CCOCC4)c3s2)CC1
COCCN(C(C)C)C1CCN(Cc2cc3nc(-c4cccc5[nH]ncc45)nc(N4CCOCC4)c3s2)CC1
CN1CCN(Cc2cc3nc(-c4cccc5[nH]ccc45)nc(N4CCOCC4)c3s2)CC1
COCCN(C)CC1CCN(Cc2cc3nc(-c4cccc5[nH]ncc45)nc(N4CCOCC4)c3s2)CC1
c1cc(-c2nc(N3CCOCC3)c3sc(CN4CCN(Cc5ncc[nH]5)CC4)cc3n2)c2cn[nH]c2c1
CS(=O)(=O)C1CCN(Cc2cc3nc(-c4cccc5[nH]ncc45)nc(N4CCOCC4)c3s2)CC1
CN(C)C(=O)N1CCN(Cc2cc3nc(-c4cccc5[nH]ncc45)nc(N4CCOCC4)c3s2)CC1
CN(C)C(=O)N1CCN(Cc2cc3nc(-c4cccc5[nH]ccc45)nc(N4CCOCC4)c3s2)CC1
C[C@@H]1CN(Cc2cc3nc(-c4cccc5[nH]ncc45)nc(N4CCOCC4)c3s2)C[C@H](C)N1Cc1nccs1
CNC(=O)[C@H]1CCCN(Cc2cc3nc(-c4cccc5[nH]ncc45)nc(N4CCOCC4)c3s2)C1
COCC1CCN(Cc2cc3nc(-c4cccc5[nH]ncc45)nc(N4CCOCC4)c3s2)CC1
O=C(N1CCOCC1)N1CCN(Cc2cc3nc(-c4cccc5[nH]ncc45)nc(N4CCOCC4)c3s2)CC1
COCC(=O)N(C)C1CCN(Cc2cc3nc(-c4cccc5[nH]ncc45)nc(N4CCOCC4)c3s2)CC1
COCCN(C)C1CCN(Cc2cc3nc(-c4cccc5[nH]ncc45)nc(N4CCOCC4)c3s2)CC1
c1cnc(N2CCN(Cc3cc4nc(-c5cccc6[nH]ncc56)nc(N5CCOCC5)c4s3)CC2)nc1
c1cc(-c2nc(N3CCOCC3)c3sc(CN4CCN(Cc5ccncc5)CC4)cc3n2)c2cn[nH]c2c1
CN1CCN(Cc2cc3nc(-c4cccc5[nH]ncc45)nc(N4CCOCC4)c3s2)CC1
